A melting point compilation (Tetko et al.; mined from patent text by program, amines drawn as free bases though some values may be those of a salt)

Compound | melting point [°C]
C=CCOc1ccc(CCC(=O)O)cc1 | 88 to 89
CC1(C)CC(S(C)(=O)=O)=NO1 | 82 to 84
O=C(Nc1cccc2c1C(=O)c1c-2n[nH]c1-c1ccc(C(=O)N2CCC[C@H]2CO)s1)NN1CCOCC1 | 267 to 268
NC(CCOc1ccncc1)C(=O)c1ccccc1CO (configuration not stated) | 108 to 109
Cc1oc(-c2ccccc2)nc1COc1ccc(OCc2oc(-c3ccccc3)nc2/C=C/C(=O)O)cc1 | 209 to 210
N#CC(C(=O)Nc1ccccc1)C(=O)c1nn(-c2ccccc2)c2c1COc1c(CN3CCOCC3)cc(F)cc1-2 (configuration not stated) | 249 to 253
COc1ccc(-c2sc3c(c2OC(C)=O)CCCc2ccccc2-3)cc1 | 154
CCN(CC)c1ccc(-c2cn(-c3ccc(C4=C(C#N)C(=C(C#N)C#N)OC4(C)C)cc3)nn2)cc1 | 275
CC(C)(Cc1ccc(OCCCC(=O)O)cc1)NCC(O)c1cc(OCc2ccccc2)cc2c1OCC(=O)N2 (configuration not stated) | 216 to 218
O=c1[nH]c2sccc2c2c([N+](=O)[O-])cccc12 | 255 to 258
Cc1cnc2cccc(Oc3cc(-c4ccc(C(F)(F)F)cc4)ncn3)c2n1 | 139 to 141
CN1CCC2(CC1)NC(=O)N(c1ccc(C#N)c(C(F)(F)F)c1)C2=N | 199 to 200
Fc1ccc(Nc2ncnc3ccc(-c4cccs4)cc23)cc1Cl | 205 to 208
CCC1CCN(C(=O)C(N)CCSCc2cn(C(c3ccccc3)(c3ccccc3)c3ccccc3)cn2)CC1 (configuration not stated) | 115 to 120
COc1ccc2c(c1)C(N1C(=O)c3ccccc3C1=O)C(=O)N2c1ccc(F)cc1 (configuration not stated) | 208 to 210
CCOC(=O)CSc1nnc(S)s1 | 67 to 68
Cc1nc2ccccc2n1Cc1ccc(C(=O)O)c2ccccc12 | 292 to 293
O=S1(=O)c2cccc3cccc(c23)N1CCN1CCC(CN2CCc3[nH]c4ccc(F)cc4c3C2)CC1 | 228
CC1CC(C)(C)c2cccc(NC(=O)c3cn(C)nc3C(F)F)c21 (configuration not stated) | 131 to 134
Cc1c(F)cccc1NC(=O)c1ccc(CN2C(=O)C3(COc4cc5c(cc43)CCO5)c3ccccc32)cc1 (configuration not stated) | 143 to 144
CC(=O)ON1C(C)(C)CC(OC(=O)NCCCCCCNC(=O)OC2CC(C)(C)N(OC(C)=O)C(C)(C)C2)CC1(C)C | 158 to 163
COc1ccc(C(=O)c2c(C)n(C(C)=O)c(=O)n2C(C)=O)cc1 | 123 to 125
Nc1ncc(-c2cccc(Nc3ccc(-c4ccoc4)cc3[N+](=O)[O-])c2)cn1 | 185 to 186
Cc1cccc(C2(C#N)C3CC4CC(C3)CC2C4)c1 (configuration not stated) | 85 to 86
CC(C)C(=O)Nc1cccc(-c2ccnc3c(C(=O)c4cccs4)cnn23)c1 | 180 to 181
NCCCCCNc1cccc2c1C(=O)c1c(NCCCCCN)cccc1C2=O | 115 to 116
CN(C)CNS(=O)(=O)c1ccc(-c2cnn(Cc3c(F)c(F)c(F)c(F)c3F)c(=O)c2-c2ccc(F)cc2)cc1 | 194 to 196
CN1c2ccc(Cl)cc2C(c2ccccc2Br)=Nc2cccnc21 | 121 to 123

Compound | melting point [°C]
CC(=O)c1ccc(OCCCOc2cc([N+](=O)[O-])c(C)cc2Br)c(CCC(F)(F)F)c1O | 106 to 109
CCOC(=O)c1ncc2[nH]c3ccc(CC)cc3c2c1C | 158 to 163
COCN(c1cccc2cc(-c3ncn(C)n3)n(COC)c12)S(=O)(=O)c1cccs1 | 157 to 158
CCCCCCCCCCCCCCCCCCCCCC(=O)NN | 117
O=C(O)c1cccc(CN2CCC(c3cn(Cc4cccs4)c4ccccc34)CC2)c1 | 228 to 229
CC(C)Cn1cnc2c(N)nc3ccc(CCCCc4ccccc4)cc3c21 | 176 to 177
O=c1c(I)c(OCc2ccc(F)cc2F)ccn1Cc1cccc(F)c1 | 164 to 167
Cc1cccc(-c2nc(C3CCN(C)CC3)sc2-c2ccnc(NC(=O)c3ccccc3)c2)c1 | 151 to 152
CC(C)c1nn2ccccc2c1S(=O)(=O)c1ccc(O)cc1 | 146
C[Si](C)(C)CCC1=C(O)C(=O)c2ccccc2C1=O | 98 to 100
C[C@H](NC(=O)C1(C)Sc2ccccc2NC1=O)C(=O)N[C@H](CCC(=O)O)C(N)=O (some centres not stated) | 124 to 125
CCCOc1ccccc1-c1nc2cc3c(cc2c(=O)[nH]1)NCN3Cc1ccc(OC)cc1 | 130 to 131
CC(C)Cn1cnc2c(N)nc3cc(CCc4ccccc4)ccc3c21 | 172 to 173
Cc1noc(NS(=O)(=O)c2ccccc2-c2ccc(-c3ncco3)cc2-c2ncco2)c1C | 108 to 113
O=P(O)(O)C(O)(CCc1nccn1Cc1ccccc1)P(=O)(O)O | 238
CN1CCCNC1=C[N+](=O)[O-] | 114 to 115
Cc1ncnc(Nc2ccc(C(=O)CCC3CCN(Cc4ccccc4)CC3)cc2)c1C | 168 to 170
CC(C)(O)C#Cc1ncn2c1[C@@H]1CCCN1C(=O)c1ccccc1-2 | 128
CCOC(=O)c1c(CCc2ccc(OC)cc2)nc2c(c1-c1ccc(C(=O)NCc3ccco3)cc1)C(=O)N1CCC[C@H]21 | 136
CN1CCN(Cc2ccc(NC(=O)c3cccc4cc(Oc5ccnc(NC(=O)C6CC6)c5)ccc34)cc2C(F)(F)F)CC1 | 218 to 220
CCCCn1c(=O)c2c(ncn2S(=O)(=O)c2cc(C)c(Cl)cc2C)n(CCCC)c1=O | 138 to 140
Cc1cccc2nc(C)n(C3CCC(=O)NC3=O)c(=O)c12 (configuration not stated) | 292 to 294
CC(C)(C)NCC(Cc1ccc(OCc2ccccc2)cc1)NCc1ccc(C(C)(C)C)cc1 (configuration not stated) | 63 to 65
CCCCc1nc2cnc3cc(C)ccc3c2o1 | 52 to 55
CCCCCCC#CCC#CCC#CCCCCCCC(=O)O | 57 to 58
CCCCCCCCCCCCCCCCCCOc1cc(OCCCOc2ccc(S(C)(=O)=O)cc2)cc(C(=O)O)c1 | 110 to 111
Cn1cc(C2=C(c3cn(C)c4cc([N+](=O)[O-])ccc34)C(=O)N(CO)C2=O)c2ccccc21 | 209 to 211

Further lines, results first:

melting point [°C] | Compound
104 to 105 | CC(=O)c1nc2cc(Cl)c(OCC(F)(F)F)cc2cc1O
87 | Cc1nc2ncnn2c(Cl)c1C1CCCC1
94 to 95 | CC(=O)OCNC(=O)c1cc(Cl)nc(Cl)c1
185 to 188 | CC(=O)SCC(Cc1ccccc1)C(=O)Nc1ccc(O)c(C(=O)O)c1 (configuration not stated)
167 to 168 | Cc1oc(-c2ccccc2)nc1CCC(N)=S
142 to 146 | Nc1sc2c(c1C(=O)c1ccc(Cl)cc1)CCSC2
216 to 218 | COc1ccc2c(c1)CCC1CCNC(=O)C(CC(C)=NO)=C21 (configuration not stated)
141 to 142 | CCOC(=O)c1cc(-c2ccc(OC)cc2)[nH]c1N
96 to 97 | CS(=O)(=O)OCN1C=NN(c2c(Cl)cc(C(F)(F)F)cc2Cl)C1
188 to 190 | O=C(NC(Cc1cccc(Cl)c1)C(=O)N1CCSC1)c1cc2cc(Cl)ccc2[nH]1 (configuration not stated)
67 to 70 | COc1cc(C(=O)N2CCN(C(=O)CNC3CCN(Cc4ccccc4)CC3)C(c3ccc(Cl)c(Cl)c3)C2)cc(OC)c1OC (racemic)
153 to 155 | Nc1c(Br)cc(S(=O)(=O)Cl)cc1Br
196 to 199 | CNCc1cc2c(=O)c(C(=O)NCc3ccc(Cl)cc3)cn(C)c2s1
216 to 217 | Oc1ccc(-c2cc3c(O)cc(O)cc3o2)cc1
198 to 204 | O=C(O)c1cccc(-c2ccc3c(n2)C(Oc2ccc(Cl)cc2Cl)CC3)c1 (configuration not stated)
160 to 162 | CCOC(=O)c1ncn2c1CN(C)C(=O)c1sccc1-2
108 to 110 | C[C@H]1C[C@H](C(=O)O)c2cc(Cl)c(Cl)cc2O1 (relative stereo)
117 to 118 | CCc1nn2c(-c3ccc(Cl)cc3Cl)cnnc2c1C(CC)CC
147 | Fc1cccc(Cl)c1-c1c(Cl)cc(-c2ncccn2)nc1Cl
148 | CCC(=NC#N)N(C)C(C)c1ccc(Cl)cc1Cl (configuration not stated)
138 | Oc1cccc(C2CCCN2Cc2ccncc2)c1 (configuration not stated)

melting point [°C] | Compound
229 | CC(=O)c1cc2c(c(C(=O)O)c1)NCCC2
188 to 190 | CCOC(=O)N(c1ccccc1-n1nc(C(=O)O)nc1CCl)c1cccc(C)c1C
286 to 288 | CC(C)(C)c1cc(C(=O)c2ncc[nH]2)cc(C(C)(C)C)c1O
207 to 210 | O=C(O)CN1C(=O)[C@@H](N[C@@H](CCC2CCCCC2)C(=O)O)CSc2ccccc21
161 to 162 | CCOC(=O)CC(=O)c1cc(F)c(O)nc1Nc1ccc(F)cc1F
107 to 109 | Cc1nc2c3c(ccn2c1C)C(OCCO)C(O)C(c1ccccc1)N3 (configuration not stated)
213 | CCCS(=O)(=O)n1ccc2ccc(N=C3NCCN3)cc21
82.2 to 84.2 | CCCCOCCOc1ccc(-c2cnc(N3CCC(COC(C)=O)C3)c(/C=C(\C)C(=O)O)c2)cc1 (configuration not stated)
169 to 171 | CCC(CC)c1ccc(Cl)c2nc3n(c12)CCN3c1ccc(Cl)cc1Br
248 to 250 | O=C(CCNc1c(C(=O)O)[nH]c2cc(Cl)ccc12)c1ccc(F)cc1
166 to 196 | N#CCCNC(=O)c1cccc(-c2ccc3c(c2)N(c2ccc(Cl)c(Cl)c2)CC3)c1
138 to 140 | N#Cc1cccc(NC(=O)c2ccc3ccccc3c2)c1
194 to 196 | CC(C)Nc1ncc2cc(-c3c(Cl)cccc3Cl)c(=O)n(C)c2n1
102 | CC(C)=NOCC(C)OC(=O)COc1ccc(Cl)c2cccnc12 (configuration not stated)
196 to 198 | CC(C)n1nc(-c2cc(C#N)c(C(=O)O)nc2-c2ccccc2)ccc1=O
114 | CC1(C)C2=C(CCC2=O)c2ccccc21
102 to 112 | CC(=O)OC(C)OC(=O)N1c2ccccc2Sc2cc(O)c3ccccc3c21 (configuration not stated)
195 to 196 | CCn1ncc2c(-c3cncc(C)c3)c(/C=C/C(=O)O)c(COC)nc21
138 to 140 | O=C1OC(=O)C2CCCC1C2
160 | CCCCOc1cc(/C=C(\OCC)C(=O)O)ccc1OCCc1ccc(NC(C)=O)cc1
206 | COC(=O)c1nc2nccc(S)n2n1
